In PubChem BioAssay (NCI):
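Method: 48-hour compound exposure of cells in 96-well plates, five concentrations, linear interpolation of endpoints. GI50 is the concentration that inhibits growth by half. At the TGI there is no net growth.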

Assays:
Experiment in all cases: NCI tumour cell line growth inhibition, 48 h
LXFL 529 NSCLC = system: LXFL 529 NSCLC
XF 498 CNS = system: XF 498 CNS
M19-MEL melanoma = system: M19-MEL melanoma
KM20L2 colon = system: KM20L2 colon
HOP-18 NSCLC = system: HOP-18 NSCLC
DMS 114 small cell lung = system: DMS 114 small cell lung
DLD-1 colon = system: DLD-1 colon
RXF-631 renal = system: RXF-631 renal
MDA-N = system: MDA-N
SN12K1 renal = system: SN12K1 renal
P388/ADR leukemia = system: P388/ADR leukemia

Compound | TGI (LXFL 529 NSCLC) [µM] | TGI (XF 498 CNS) [µM] | TGI (M19-MEL melanoma) [µM] | TGI (KM20L2 colon) [µM] | TGI (HOP-18 NSCLC) [µM] | TGI (DMS 114 small cell lung) [µM] | TGI (DLD-1 colon) [µM] | TGI (RXF-631 renal) [µM] | TGI (MDA-N) [µM] | other results
COC(=O)[C@]1(C)C(OC)=CC(=O)C2C1[C@H]1CCC[C@@H]21 (stereo partly specified) | > 100 | > 100 | > 100 | > 100 | > 100 | > 100 | > 100 |  |  | 
COC(=O)C(CC(=O)c1c[nH]c2ccccc12)c1c[nH]c2ccccc12 (stereo unspecified) |  | 31.8 | > 10 | 34 |  | 39.4 | > 100 | 31.5 |  | 
[N-]=[N+]=CC(=O)COC(=O)c1ccccc1 |  |  |  |  |  |  |  |  | > 100 | 
S=P(N1CCCC1)(N1CC1)N1CC1 |  | > 100 | > 100 | > 100 | > 100 | > 100 | > 100 |  |  | 
CCOC(=O)c1c(-c2ccccc2)c(C(OC(c2ccccc2)c2c(-c3ccccc3)c(C(=O)OCC)n3ccccc23)c2ccccc2)c2ccccn12 (stereo unspecified) | > 100 | > 100 |  | > 100 | > 100 |  | > 100 |  |  | 
Clc1ccc2ns[s+]c2c1 | > 100 | > 100 | > 100 | > 100 | > 100 | > 100 | > 100 |  | > 100 | 
Nc1ccc(C(=O)CC2(O)C(=O)Nc3c(Cl)cc(Cl)cc32)cc1 (stereo unspecified) | > 100 |  | > 100 | > 100 | > 100 |  | > 100 | 79.8 |  | 
COc1cc(C2c3cc4c(cc3[C@@H](OCCN(C)C)C3COC(=O)[C@H]23)OCO4)cc(OC)c1O (stereo partly specified) | 31.7 | 1.74 | 3.17 | 5.14 | 4.36 |  | 5.93 | 1.78 |  | 
CN1C(=O)C2C=CC1C1CCC2N(C)C1=O (stereo unspecified) | > 100 |  | > 100 |  | > 100 | > 100 | > 100 | > 100 |  | 
O=c1cc(-c2ccccn2)[nH]c2cc(F)ccc12 | > 100 |  | > 100 | > 100 | > 100 | > 100 | > 100 | > 100 |  | GI50 (DMS 114 small cell lung): 52.4 µM
CC(=O)Nc1ccc(/C=C2/NC(=S)N(/C=C3\C(=O)Oc4ccccc4C3=O)C2=O)cc1 |  |  |  |  |  |  |  |  | > 100 | 
CCCCCCCCCCCCCCCCCCNC(=O)OCC(CNS(=O)(=O)CCC[n+]1cccc2ccccc21)COC (stereo unspecified) |  |  |  | 2.15 | 15.4 |  | 27.5 |  |  | 
Cc1c(Cl)cccc1NC(=O)/C(Cl)=C(\Cl)C(=O)O | 46.5 |  | 30.7 | 40.9 | 31.7 | 36.5 | 40.6 | 56.7 |  | 
C/C(=N\NC(=S)N1CCN(c2ccccn2)CC1)c1nccs1 | 22 | 32.1 | 2.34 |  | > 90.8 | 0.649 | 34.4 | 24.2 | 16.6 | 
COC(=O)C1Cc2c([nH]c3ccccc23)C(c2ccccc2O)N1Cc1ccccc1 (stereo unspecified) | 43.9 |  | > 46.4 | > 46.4 | > 46.4 | > 31.6 | > 100 | 45.3 |  | 
Nc1nc(N)nc(CC(=O)O)n1 |  |  |  |  |  |  |  |  | > 100 | 
COc1c(Sc2ccccc2)cc(Sc2ccccc2)c2cccnc12 | > 100 | 45.6 | 94.9 | 50.2 |  | 91.3 | > 100 | > 100 |  | 
CC1=NOC(=O)C1N=Nc1ccc(Br)c(C)c1 (stereo unspecified) | 29.1 | 31.7 | 35.6 | > 100 | 19.8 | 29.3 | 63.1 |  |  | 
NNS(=O)(=O)c1cc(C(=O)O)cc(C(=O)O)c1 |  |  |  |  |  |  |  |  | > 100 | 
COC(=O)[C@H]1N[C@@H](C(=O)OC)C23CCC[C@H]2CC[C@]1(C(OC)OC)C3 | > 100 | > 100 | > 100 | > 100 | > 100 | > 100 | > 100 |  |  | 
NC(=O)c1csc(C2CCC(CO)O2)n1 (stereo unspecified) | > 100 |  | > 100 | > 100 | > 100 | > 100 |  |  |  | 
COc1cc2c(c(OC)c1OC)-c1ccc(O)c(=O)cc1[C@@H](NC(C)=O)CC2 |  |  |  |  |  |  |  |  | 34.4 | 

Compound | TGI (LXFL 529 NSCLC) [µM] | TGI (XF 498 CNS) [µM] | TGI (M19-MEL melanoma) [µM] | TGI (KM20L2 colon) [µM] | TGI (HOP-18 NSCLC) [µM] | TGI (DMS 114 small cell lung) [µM] | TGI (DLD-1 colon) [µM] | TGI (RXF-631 renal) [µM] | TGI (MDA-N) [µM] | other results
COc1cc2c3c(c1OC)C1(C=CC(=O)C=C1)CC3NCC2 (stereo unspecified) |  |  |  |  |  |  |  |  | > 100 | 
CCOC(=O)Cc1csc(N=Nc2c(O)[nH]c3ccccc23)n1 |  |  |  |  |  |  |  |  | > 100 | 
CS(=O)(=O)NNS(=O)(=O)c1ccc(Cl)cc1 | > 100 | > 100 | > 100 | > 100 |  | > 100 | > 100 | > 100 |  | 
C[C@]12CC[C@H]3[C@@H](CC[C@]4(O)C[C@@H](O)CC[C@]34CO)[C@@]1(O)CC[C@@H]2C1=CC(=O)OC1 |  |  |  |  |  |  |  |  | 14.4 | 
O=C(CSc1nc(-c2ccccc2)c(-c2ccccc2)[nH]1)NNC(=S)Nc1ccccc1 | > 100 | > 100 | > 100 | > 100 |  | > 100 | > 100 |  |  | 
CCn1c(=O)c2c3ccc(OC(C)=O)cc3[nH]c2c2ccc(OC(C)=O)cc21 |  |  |  |  |  |  |  |  | > 100 | 
CC(/C=C/NNC1=NC(c2ccccc2)C(c2ccccc2)=NN1)Sc1ccccc1N (stereo unspecified) | 15.5 |  | 28.9 | 23.2 |  |  | 21.7 | 38.7 |  | 
COC(=O)c1ccc(C(=O)OC)c2nc3cc(C)ccc3nc12 | > 100 | > 100 |  | > 100 | > 100 | > 100 | > 100 | > 100 |  | 
Cc1ccc2sc3ccc(N)cc3c(=O)c2c1 |  |  |  |  |  |  |  |  | > 100 | 
COC(=O)[C@]1(C)CCC[C@@]2(C)[C@@H]3C[C@@H]4[C@H]5C[C@@]3(CC[C@@H]21)C[C@@]45C |  |  |  |  |  |  |  |  | 31.8 | 
CC1=C(/C=C/C(C)=C/C=C/C(C)=C/C=C/C=C(C)/C=C/C=C(C)/C=C/C2=C(C)C(=O)C(O)CC2(C)C)C(C)(C)CC(O)C1=O (stereo unspecified) |  |  | > 100 | > 100 | > 100 | > 100 | > 100 | > 100 |  | 
C/C=C(/C)c1cnc(CC(C)C)c(=O)[nH]1 |  |  |  |  |  |  |  |  | > 100 | 
O=C(O)Cc1ccccc1CCc1ccccc1Cl | > 100 | > 100 | > 100 | > 100 | > 100 |  | > 100 |  |  | 
COC(=O)C(=O)C(C(=O)C(N)=O)c1nc2ccc(C(=O)c3ccccc3)cc2[nH]c1=O (stereo unspecified) |  |  |  |  |  |  |  |  | > 100 | 
COC(=O)[C@@]1(C)CCC[C@]2(C(=O)O)C3Cc4occc4[C@H](C)[C@@H]3CCC21 (stereo partly specified) |  |  |  |  |  |  |  |  | > 100 | 
COc1ccc2ccccc2c1CN1CCOCCOCCN(Cc2c(OC)ccc3ccccc23)CCOCCOCC1 | > 100 | > 63.2 | > 100 | > 100 |  | > 100 | > 100 |  |  | 
O=C1C(Cl)=C(c2ccc([N+](=O)[O-])cc2)C(=O)c2c(O)cccc21 | 0.94 | 1.95 | 3.52 |  | 2.04 | 0.786 | 2.55 |  | 6.53 | 
CC1(C)C(=O)C=CC2(C)C1CC(O)C1(C)C2CCC2(C)C(c3ccoc3)OC(=O)C3OC321 (stereo unspecified) |  |  |  |  |  |  |  |  | 41.8 | 
Clc1ccc2c(c1)[nH]c1c2nc2sccn21 | > 100 | > 100 | > 100 | > 100 | > 100 | > 100 | > 100 | > 100 |  | 
Nc1cc2[nH]cnc2c(=O)[nH]1 |  | 29.4 | > 300 | > 300 | > 300 | > 300 | > 300 |  | > 300 | TGI (SN12K1 renal): > 300 µM; TGI (P388/ADR leukemia): > 300 µM
CCC[CH2][Sn]1([CH2]CCC)[O]C(=O)c2ccc(N)cc2[O]1 | 0.248 |  | 1.66 | 3.17 | 2.18 |  |  |  | 1.97 | GI50 (LXFL 529 NSCLC): 0.0365 µM; GI50 (MDA-N): 0.668 µM; GI50 (KM20L2 colon): 1.57 µM; GI50 (HOP-18 NSCLC): 0.997 µM
